From patent US12590123B2, “Compounds and methods for treating cancer, viral infections, and allergic conditions” (Washington University, priority 2019, dated 2026)

Columns and labels:
Type in all cases: biochemical
recombinant thrombin = recombinant thrombin (Homo sapiens, UniProt P00734); assay: Chromogenic kinetic enzyme assay of thrombin (S2238); conditions: Table 2; chromogenic assay; read-out: Thrombin* (IC50 nM)
Description: Using GraphPad Prism (GraphPad Software, San Diego, CA), a four-parameter curve fit was used to determine the inhibitor IC50s from a plot of the mean reaction velocity versus the inhibitor concentration. The IC50 values represent the average of three or more separate experimental determinations. Apparent Ki values were calculated from the IC50 values using the Cheng and Prusoff equation (Ki=IC50/(1+[S]/Km).
Using GraphPad Prism version 6.04 software program, (GraphPad Software, San Diego, CA, graphpad.com), a four parameter curve fit was used to determine the inhibitor IC50s from a plot of the mean reaction velocity versus the inhibitor concentration.
Fluorescent inhibitor and chromogenic proteolytic assays were performed for compounds prepared in Example 11 in general accordance with the procedures described in Example 9.

[1] = biological target: T1, recombinant HGFA serine protease domain (Homo sapiens, UniProt Q04756); assay: Fluorescent kinetic enzyme assay of HGFA activity (Boc-QLR-AMC); conditions: Table 2; read-out: HGFA (IC50 nM)
T1 construct: His6 tag (N); seven amino acid spacer plus TEV cleavage site (N); made in house; host or cells: High 5 insect cells (baculovirus; Sf9 for virus production)
T1 sequence (Q04756 373-655): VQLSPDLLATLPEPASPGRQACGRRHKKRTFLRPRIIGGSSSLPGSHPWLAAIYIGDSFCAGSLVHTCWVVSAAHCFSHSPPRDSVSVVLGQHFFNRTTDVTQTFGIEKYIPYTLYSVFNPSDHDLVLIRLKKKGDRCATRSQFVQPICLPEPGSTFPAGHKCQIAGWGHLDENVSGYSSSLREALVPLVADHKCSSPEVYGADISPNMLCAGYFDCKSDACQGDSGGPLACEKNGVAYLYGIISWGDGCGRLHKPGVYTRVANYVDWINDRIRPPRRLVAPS
Procedure, shortened: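 His-tagged HGFA protease domain from baculovirus-infected High 5 cells, 6.25 nM in pH 8 Tris/NaCl/5 mM CaCl2/0.01% Triton X-100 with 2% DMSO. IC50 from four-parameter velocity fit (≥3 runs); apparent Ki by Cheng–Prusoff.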

activated hepsin = biological target: T2, activated hepsin (Homo sapiens, UniProt P05981); assay: Fluorescent kinetic enzyme assay of hepsin activity (Boc-QAR-AMC); conditions: Table 2; read-out: Hepsin (IC50 nM)
T2 construct: purchased R&D Systems 4776-SE-010
T2 sequence (P05981 163-417 limits assumed): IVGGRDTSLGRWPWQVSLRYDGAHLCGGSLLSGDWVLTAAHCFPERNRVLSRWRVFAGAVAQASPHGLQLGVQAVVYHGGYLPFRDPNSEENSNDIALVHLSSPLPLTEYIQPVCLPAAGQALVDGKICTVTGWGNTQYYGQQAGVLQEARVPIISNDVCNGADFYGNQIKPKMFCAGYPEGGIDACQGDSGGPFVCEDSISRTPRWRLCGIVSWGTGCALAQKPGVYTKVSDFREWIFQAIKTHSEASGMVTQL
T2 sequence (P05981 1-162 partner limits assumed): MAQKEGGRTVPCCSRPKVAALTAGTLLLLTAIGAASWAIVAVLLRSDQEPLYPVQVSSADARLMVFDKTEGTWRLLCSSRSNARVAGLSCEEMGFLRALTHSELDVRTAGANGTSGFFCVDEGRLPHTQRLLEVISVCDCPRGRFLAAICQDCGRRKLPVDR

IC50 (recombinant thrombin): 1090 nM
IC50 [1]: 3170 nM
IC50 (activated hepsin): 17.4 nM
Compound: CC(=O)N[C@H]1CC(=O)NCCCC[C@@H](C(=O)N[C@@H](CCCNC(=N)N)C(=O)c2nc3ccccc3s2)NC(=O)[C@H](Cc2ccccc2)NC1=O [VD3112, (3S,6S,14S)-6-acetamido-N—((S)-1-(benzo[d]thiazol-2-yl)-5-guanidino-1-oxopentan-2-yl)-3-benzyl-2,5,8-trioxo-1,4,9-triazacyclotetradecane-14-carboxamide]
